This is an account of results in US9650389B2, “8-oxoprotoberberine derivative or pharmaceutically acceptable salt thereof, preparation method therefor and pharmaceutical composition for preventing or treating diseases associated with activity of NFAT5, containing same as active ingredient” (Korea Research Institute of Chemical Technology, priority 2013, dated 2017).

Assay [1] deals with T1, NFAT5 (Mus musculus, UniProt Q9WV30).
T1 construct: endogenous in cells; host or cells: RAW264.7
Nature of the assay: NFAT5 reporter screening (GFP, HCS) in LPS-treated Raw264.7 cells. To be noted: for Inhibition rate of NFAT5 transcription (%): Raw264.7 reporter, LPS 1 μg/ml, 48 hours. It counts as cell-based. How it is done: To investigate whether or not the derivative of the present invention could inhibit the transcriptional activity of NFAT5, NFAT5 reporter screening was performed. A plasmid vector was constructed by eliminating CMV promoter sequence from the backbone and inserting NFAT5 binding site sequence ([…]) instead. Raw264.7 cells transfected with the vector were cultured in 10% FBS-PRMI (supplemented with 500 μg/ml G418). The cells were distributed in a 96-well plate at the density of 3×10^3 cells/well, followed by further culture for one more day. The cells were treated with LPS at the concentration of 1 μg/ml for 48 hours. Then, the cells were fixed and the expression level of GFP was measured by HCS fluorescence image (Thermo, ArrayScan^VTI).

A further assay has as its target T2, COX1 (Ovis aries, UniProt P05979).
T2 construct: purchased Cayman Co. 760111
T2 sequence (P05979 25-600): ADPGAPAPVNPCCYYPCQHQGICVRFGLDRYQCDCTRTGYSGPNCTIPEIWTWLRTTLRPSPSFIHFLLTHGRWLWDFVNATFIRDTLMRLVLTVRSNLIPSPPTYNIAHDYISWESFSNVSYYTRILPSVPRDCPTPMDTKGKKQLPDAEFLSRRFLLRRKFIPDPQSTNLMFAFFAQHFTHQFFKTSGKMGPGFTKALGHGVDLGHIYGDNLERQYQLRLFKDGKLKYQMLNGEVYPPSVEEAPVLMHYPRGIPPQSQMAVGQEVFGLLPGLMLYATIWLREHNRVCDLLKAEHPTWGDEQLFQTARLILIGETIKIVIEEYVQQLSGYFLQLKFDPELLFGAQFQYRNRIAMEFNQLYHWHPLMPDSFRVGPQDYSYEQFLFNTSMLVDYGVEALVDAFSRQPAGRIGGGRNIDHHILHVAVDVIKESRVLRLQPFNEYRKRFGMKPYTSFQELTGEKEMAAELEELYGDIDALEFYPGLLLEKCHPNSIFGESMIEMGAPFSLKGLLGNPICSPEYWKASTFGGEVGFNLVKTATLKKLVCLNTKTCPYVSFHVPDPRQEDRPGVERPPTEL
Nature of the assay: COX inhibition, COX assay kit (Table 4). It counts as biochemical. How it is done: (§1) 10 μl of substrate and 10 μl of arachidonic acid were added thereto, followed by reaction for 10 minutes in the darkness. Then, OD590 was measured.

The next assay deals with IL-6 and TNF-α. Nature of the assay: Inflammatory cytokine expression in LPS-treated human mononuclear cells (PBMC), real-time PCR. It counts as cell-based. To be noted: LPS 1 μg/ml, compound 1 μg/ml, 6 hours, FIG. 11. How it is done:
Particularly, PBMC separated from healthy human blood was treated with LPS (1 μg/ml). The cells were treated with the compound of the present invention at the concentration of 1 μg/ml, followed by culture for 6 hours to investigate whether or not the induced inflammatory cytokine secretion was inhibited by the compound. RNA was separated from the cells, from which the transcription levels of IL-6 and TNF-α were quantified by real-time PCR. The results are shown in FIG. 11 (NC: negative control, PC: positive control).
(In general: In qPCR the cycle at which signal appears reflects the starting amount.)

The test system of a further assay is Th17 cells. Nature of the assay: Differentiation of mouse naïve T cells into Th17 cells. It counts as cell-based. The following applies: Rag2 KO/OVA-TCRtg naïve T cells, 3 days, secreted cytokine protein; compared with berberine; FIG. 12. How it is done:
Particularly, the transgenic mouse (Rag2 KO/OVA-TCRtg) naïve T cells were cultured under the condition of Th17 cell differentiation (treated with IL-6, IL-1β, and TGF-β along with APC cells) for 3 days. Compared with berberine known as a Th17 differentiation inhibitor, the inhibitory effect of the NFAT5 inhibitor on the differentiation of Th17 was measured by quantifying the secreted cytokine protein. Cell survival rate under the same condition was also measured by CCK-8.

The target in another assay is T3, COX2 (Ovis aries, UniProt P79208).
T3 construct: purchased Cayman Co. 760111
T3 sequence (P79208 17-603): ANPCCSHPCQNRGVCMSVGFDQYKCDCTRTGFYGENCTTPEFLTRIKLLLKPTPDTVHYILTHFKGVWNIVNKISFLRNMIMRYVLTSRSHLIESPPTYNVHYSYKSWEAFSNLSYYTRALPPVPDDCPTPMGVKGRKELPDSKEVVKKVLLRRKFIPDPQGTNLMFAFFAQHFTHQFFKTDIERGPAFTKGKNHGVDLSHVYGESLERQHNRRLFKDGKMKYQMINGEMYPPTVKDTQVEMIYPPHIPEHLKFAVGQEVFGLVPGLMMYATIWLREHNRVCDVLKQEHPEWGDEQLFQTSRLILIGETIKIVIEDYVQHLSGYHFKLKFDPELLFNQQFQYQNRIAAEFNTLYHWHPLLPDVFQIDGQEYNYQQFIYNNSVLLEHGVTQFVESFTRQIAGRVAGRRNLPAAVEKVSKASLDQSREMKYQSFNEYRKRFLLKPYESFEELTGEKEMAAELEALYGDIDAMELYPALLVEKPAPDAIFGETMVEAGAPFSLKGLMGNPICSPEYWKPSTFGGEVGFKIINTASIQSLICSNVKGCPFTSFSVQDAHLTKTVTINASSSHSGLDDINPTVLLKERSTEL
Nature of the assay: COX inhibition, COX assay kit (Table 5). Format: biochemical. How it is done: as §1

Assay [2] deals with NFAT5. Nature of the assay: NFAT5 transcription and nuclear localization in LPS-stimulated RAW264.7 cells. Format: cell-based, mouse. The following applies: FIG. 4. How it is done:
Particularly, RAW264.7 cells were distributed in a 12-well plate at the density of 1.5×10^5 cells/well, followed by culture in 10% FBS-RPMI 1640 medium. The cells were stabilized for a day. The compound of Example 1 was treated thereto at the concentration of 1 μM for 1 hour, and then the cells were stimulated with LPS for 12 hours. 12 hours later, mRNA was extracted from the cells, and cDNA was synthesized therefrom. PCR (real-time PCR) was performed to measure the expression level of NFAT5 mRNA. The migration of the transcription factor NFAT5 from the cytoplasm to the nucleus was investigated. Particularly, RAW264.7 cells were distributed in a 6-well plate at the density of 6×10^5 cells/well, followed by culture in 10% FBS-RPMI 1640 medium. The cells were pre-treated with the compound 6 (1 μM) for 1 hour, and treated with LPS (1 μg/ml) for 24 hours. Cytoplasm and nucleus proteins were separated from the stimulated cells and the levels of NFAT5 and p65 protein (NF-kB subunit) were measured.

Setting [3] is: Conc. 20 μM, two values per substance.
Where [4] appears, read: Conc. 20 μM, two values per substance, read-out: inhibition rate.
Where [5] appears, read: Conc. 100 μM, two values per substance.
Setting [6] is: Conc. 100 μM, two values per substance, read-out: inhibition rate.

T1 sequence (Q9WV30 whole entry): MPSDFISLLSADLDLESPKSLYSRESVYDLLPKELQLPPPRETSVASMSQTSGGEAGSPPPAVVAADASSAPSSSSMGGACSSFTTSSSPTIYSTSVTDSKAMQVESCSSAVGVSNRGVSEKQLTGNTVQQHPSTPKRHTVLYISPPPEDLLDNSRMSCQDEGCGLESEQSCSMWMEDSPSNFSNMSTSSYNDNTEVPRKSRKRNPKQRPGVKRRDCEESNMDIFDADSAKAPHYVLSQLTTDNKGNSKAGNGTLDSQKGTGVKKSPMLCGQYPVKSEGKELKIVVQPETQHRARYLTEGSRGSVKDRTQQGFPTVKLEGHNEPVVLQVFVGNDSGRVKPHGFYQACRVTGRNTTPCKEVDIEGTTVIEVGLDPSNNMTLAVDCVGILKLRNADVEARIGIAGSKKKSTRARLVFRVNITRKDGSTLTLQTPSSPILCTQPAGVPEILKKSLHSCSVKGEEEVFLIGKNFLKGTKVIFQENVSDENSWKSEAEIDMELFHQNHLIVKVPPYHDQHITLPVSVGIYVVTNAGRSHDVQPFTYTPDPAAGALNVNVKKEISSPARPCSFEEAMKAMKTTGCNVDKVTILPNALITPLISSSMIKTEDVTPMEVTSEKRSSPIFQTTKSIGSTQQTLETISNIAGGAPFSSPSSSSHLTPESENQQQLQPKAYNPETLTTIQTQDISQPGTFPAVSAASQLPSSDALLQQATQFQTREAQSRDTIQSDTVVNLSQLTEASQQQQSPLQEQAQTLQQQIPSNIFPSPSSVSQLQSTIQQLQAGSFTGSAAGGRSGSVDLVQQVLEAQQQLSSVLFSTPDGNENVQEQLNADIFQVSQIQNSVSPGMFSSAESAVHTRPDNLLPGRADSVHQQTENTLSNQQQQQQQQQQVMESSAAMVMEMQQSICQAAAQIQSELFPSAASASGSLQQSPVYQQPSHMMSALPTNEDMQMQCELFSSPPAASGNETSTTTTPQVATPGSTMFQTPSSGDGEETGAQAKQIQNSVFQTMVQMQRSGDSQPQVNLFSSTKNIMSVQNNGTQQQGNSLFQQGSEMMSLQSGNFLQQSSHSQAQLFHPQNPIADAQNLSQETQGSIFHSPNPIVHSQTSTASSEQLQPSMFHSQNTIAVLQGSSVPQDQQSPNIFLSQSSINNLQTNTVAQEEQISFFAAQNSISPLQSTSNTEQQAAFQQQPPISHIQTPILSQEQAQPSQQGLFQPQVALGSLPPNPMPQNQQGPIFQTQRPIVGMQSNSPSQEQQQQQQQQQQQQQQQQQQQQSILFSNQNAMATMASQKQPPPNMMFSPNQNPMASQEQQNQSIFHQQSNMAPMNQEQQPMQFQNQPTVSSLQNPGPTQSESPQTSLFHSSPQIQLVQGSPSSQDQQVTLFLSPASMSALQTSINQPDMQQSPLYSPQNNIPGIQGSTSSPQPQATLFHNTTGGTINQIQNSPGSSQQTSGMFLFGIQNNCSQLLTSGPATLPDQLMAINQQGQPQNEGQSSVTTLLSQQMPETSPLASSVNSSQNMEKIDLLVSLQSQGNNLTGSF

By inhibition is commonly meant the percentage by which the read-out fell short of the control. As usually defined, the IC50 is the point on the concentration scale where inhibition reaches its midpoint. Low values mean greater potency, high ones weaker potency. For `COc1ccc2c(Cc3ccccc3F)c3n(c(=O)c2c1OC)CCc1cc2c(cc1-3)OCO2` [Example 1, 13-(2-fluorobenzyl)-9,10-dimethoxy-5H-[1,3]dioxolo[4,5-g]isoquinolino[3,2-a]isoquinoline-8(6H)-one], the “Inhibition rate of NFAT5 transcription (%)” value came out at 11.2% at NFAT5 [1] (1 μM) and 81.2% on NFAT5 [1] (10 μM). Further, the “inhibiting NFAT5 activity (in words)” value at NFAT5 [1] (Table 3 and FIG. 1) is “remarkably excellent in inhibiting NFAT5 activity”. Moreover, at COX1, the “inhibitory effect on COX1 (in words)” value was “weak inhibitory effect”. For the same compound, the inhibition rate on COX1 (setting [3]) amounted to 7.4; against COX1 (setting [5]), 23.4; at COX2 (setting [3]) it was 15.5; against COX2 (setting [5]) it was 25.7. Moreover, the inhibition at 20 µM at COX1 (setting [4]) is 11.4%; on COX2 (setting [4]), 12.1%. The inhibition at 100 µM on COX1 (setting [6]) was 28.4%; at COX2 (setting [6]), 36.7%. Further, the IC50 against COX1 (Table 4) and against COX2 (Table 5) was > 100 µM throughout. Further, the “expression of cytokines (IL-6, TNF-α transcription levels)” value in the assay with IL-6 and TNF-α is “inhibit the expression of cytokines”. For the same compound, the “inhibitory effect on the differentiation of Th17” value in the assay with Th17 cells was “inhibitory effect on the differentiation of Th17 as similar as berberine”. Also, on COX2, the “inhibitory effect on COX2 (in words)” value is “weak inhibitory effect”. Further, the “increase of NFAT5 expression caused by LPS (from the phase of transcript)” value in the assay on NFAT5 [2] (1 μM for 1 hour, LPS 12 hours, real-time PCR) is “suppressed”. The “NFAT5 protein level increased by LPS (cytoplasm/nucleus)” value with NFAT5 [2] (1 μM pre-treatment 1 hour, LPS 1 μg/ml 24 hours) is reported as “reduced”.
